This is an account of results in patent US11124476B2, “Tunable nitric oxide-releasing macromolecules having multiple nitric oxide donor structures” (The University of North Carolina at Chapel Hill, priority 2011, dated 2021).

The nature of this test: NO release from NO-releasing co-condensed silica, Nitric Oxide Analyzer, physiological condition. The format is physicochemical. The procedure:
A variety of single and multi-donor co-condensed silica macromolecules were synthesized. […] FIGS. 8A and 8B illustrate the same release profiles with normalized maximum NO concentration. FIG. 8B illustrates the same release profiles, with normalized maximum NO concentration, as FIG. 8A, but is an expanded view of the release profiles. All release profiles were collected with a Nitric Oxide Analyzer under physiological condition at pH=7.4 and 37° C.
To make NO-releasing co-condensed silica with programmed release profile, the different silane diazeniumdiolate monomer solutions were mixed at the pre-set ratios. The mixture is then added into a flask with pre-cooled ethanol with nitrogen protection. The mixture is further cooled to −15° C. and pre-set amount of backbone silane (TEOS or TMOS) is added. When the mixture temperature equilibriums to −15° C., the ammonium hydroxide aqueous solution is added. The reaction is then warmed rapidly to 15° and stirred for additional 3 hours. The content is then filtered. The solid is washed with dry ethanol twice and then dried extensively.

Regarding `CCCCCCCCCCCCNCCCCCCN(CCCCCCCCCCCC)/[N+]([O-])=N/O` [MAP3 diazeniumdiolate], the “duration of NO release” value is “only a few minutes”.
